We go through six molecules from ChEMBL document CHEMBL4261580, “Novel antitumor compound optimized from natural saponin Albiziabioside A induced caspase-dependent apoptosis and ferroptosis as a p53 activator through the mitochondrial pathway” (Eur J Med Chem, 2018).

The structures appear in SMILES notation. Calls of active or inactive are those of the source. The calls are words filed in the database; no cut-off is given here.

One may read the IC50 as the point on the concentration scale where inhibition reaches its midpoint. Low values mean inhibition by little substance, high ones a need for much substance.

One assay deals with HepG2. Put plainly: Antiproliferative activity against human HepG2 cells after 72 hrs by MTT assay. It counts as functional, cell-based. The conditions noted are these: HepG2, 72 h. (Tetrazolium dyes change colour on reduction, which living cells bring about.)
In assay [1] the test system is HCT-116. Put plainly: Antiproliferative activity against human HCT116 cells after 72 hrs by MTT assay. The note with it: HCT-116, 72 h. It counts as functional, cell-based.
The next assay concerns MCF7. The experiment in a line: Antiproliferative activity against human MCF7 cells after 72 hrs by MTT assay. The conditions noted are these: MCF7, 72 h. It counts as functional, cell-based.
Assay [2] has as its system HCT-116. Put plainly: Antitumor activity against human HCT116 cells xenografted in BALB/c nude mouse assessed as decrease in tumor size at 20 mg/kg, iv administered once per day for 14 days and measured every 2 days. It counts as functional. (In general: Xenograft models place foreign cells or tissue in a host animal.)
Assay [3] deals with HCT-116. Put plainly: Antitumor activity against human HCT116 cells xenografted in BALB/c nude mouse assessed as decrease in tumor weight at 20 mg/kg, iv administered once per day for 14 days and measured every 2 days. It is filed as functional.
A further assay has as its system MGC-803. Put plainly: Antiproliferative activity against human MGC803 cells after 72 hrs by MTT assay. The note with it: MGC-803, 72 h. It counts as functional, cell-based.
The subject of a further assay is A549. The experiment in a line: Antiproliferative activity against human A549 cells after 72 hrs by MTT assay. It counts as functional, cell-based. The note with it: A549, 72 h.
Assay [4] in a line: Antiproliferative activity against human HBMEC cells after 72 hrs by MTT assay. It counts as cell-based.
A further assay relates to HaCaT. The experiment in a line: Antiproliferative activity against human HaCaT cells after 72 hrs by MTT assay. It is filed as cell-based.
A short description of assay [5]: Antiproliferative activity against human CCD-841 cells after 72 hrs by MTT assay. It counts as cell-based. The conditions noted are these: CCD-841, 72 h.
For another assay, the system named is L02. Put plainly: Antiproliferative activity against human LO2 cells after 72 hrs by MTT assay. It counts as cell-based. The conditions noted are these: L02, 72 h.
The test system of another assay is BEAS-2B. Put plainly: Antiproliferative activity against human BEAS2B cells after 72 hrs by MTT assay. It counts as functional, cell-based.

Consider `CC(=O)N[C@H]1[C@H](O[C@H]2CC[C@]3(C)[C@H]4CC=C5[C@@H]6CC(C)(C)CC[C@]6(C(=O)O)CC[C@@]5(C)[C@]4(C)CC[C@H]3C2(C)C)O[C@H](CO[C@@H]2OC[C@H](O)[C@H](O)[C@@H]2O)[C@@H](O)[C@@H]1O`, for which the IC50 in the assay on HepG2 is 11.4 µM; in the assay on HCT-116 [1] it was 16 µM; with MCF7, 21.9 µM; with MGC-803 it was 20.8 µM; with A549 it was 17.6 µM. The outcome with HCT-116 [2] and in the assay with HCT-116 [3] was Active.
Take `CC(=O)N[C@H]1[C@H](O[C@H]2CC[C@]3(C)[C@H]4CC=C5[C@@H]6CC(C)(C)CC[C@]6(C(=O)OCc6cn(-c7cccc(Br)c7)nn6)CC[C@@]5(C)[C@]4(C)CC[C@H]3C2(C)C)O[C@H](CO[C@@H]2OC[C@H](O)[C@H](O)[C@@H]2O)[C@@H](O)[C@@H]1O`: the IC50 turned out to be 5.51 µM in the assay with HepG2; 9.93 µM in the assay with HCT-116 [1]; 15 µM with MCF7; 20.4 µM in [4]; 7.7 µM in the assay with MGC-803; 10.2 µM in the assay with A549. For the same molecule, the half-maximal inhibitory concentration (IC50) is 39.3 µM in the assay on HaCaT, 18.2 µM in assay [5], 35.4 µM in the assay on L02 and 11.3 µM with BEAS-2B.
As for `CC(=O)N[C@H]1[C@H](O[C@H]2CC[C@]3(C)[C@H]4CC=C5[C@@H]6CC(C)(C)CC[C@]6(C(=O)OCc6cn(-c7cccc(I)c7)nn6)CC[C@@]5(C)[C@]4(C)CC[C@H]3C2(C)C)O[C@H](CO[C@@H]2OC[C@H](O)[C@H](O)[C@@H]2O)[C@@H](O)[C@@H]1O`, the IC50 was determined as 5.39 µM in the assay on HepG2; 12.2 µM in the assay with HCT-116 [1]; 10.8 µM in the assay with MCF7; 18.7 µM in assay [4]; 10.1 µM in the assay on MGC-803; 9.08 µM in the assay on A549. In addition, the IC50 was 29.5 µM with HaCaT, 36.5 µM in assay [5], 27.4 µM in the assay with L02 and 14.6 µM in the assay on BEAS-2B.
`CC(=O)N[C@H]1[C@H](O[C@H]2CC[C@]3(C)[C@H]4CC=C5[C@@H]6CC(C)(C)CC[C@]6(C(=O)OCc6cn(-c7ccc(C#N)cc7)nn6)CC[C@@]5(C)[C@]4(C)CC[C@H]3C2(C)C)O[C@H](CO[C@@H]2OC[C@H](O)[C@H](O)[C@@H]2O)[C@@H](O)[C@@H]1O`: the IC50 in the assay with HepG2 turned out to be 17.5 µM; in the assay on HCT-116 [1], 8.86 µM; with MCF7 it was 15.8 µM; with MGC-803 it was 18.2 µM; in the assay on A549 it was 22.6 µM.
For `CC(=O)N[C@H]1[C@H](O[C@H]2CC[C@]3(C)[C@H]4CC=C5[C@@H]6CC(C)(C)CC[C@]6(C(=O)OCc6cn(-c7ccc(Br)cc7)nn6)CC[C@@]5(C)[C@]4(C)CC[C@H]3C2(C)C)O[C@H](CO[C@@H]2OC[C@H](O)[C@H](O)[C@@H]2O)[C@@H](O)[C@@H]1O`, in that order: 12.6 µM, 22.9 µM, 26.2 µM, 12.4 µM and 12.5 µM.
For `CC(=O)N[C@H]1[C@H](O[C@H]2CC[C@]3(C)[C@H]4CC=C5[C@@H]6CC(C)(C)CC[C@]6(C(=O)OCc6cn(-c7ccccc7)nn6)CC[C@@]5(C)[C@]4(C)CC[C@H]3C2(C)C)O[C@H](CO[C@@H]2OC[C@H](O)[C@H](O)[C@@H]2O)[C@@H](O)[C@@H]1O`, in that order: 18.3 µM, 25.2 µM, 21.9 µM, 19.6 µM and 9.97 µM.
